Data as given in ChEMBL document CHEMBL5143690, “Identification of nitrofuranylchalcone tethered benzoxazole-2-amines as potent inhibitors of drug resistant Mycobacterium tuberculosis demonstrating bactericidal efficacy” (Bioorg Med Chem, 2022).
≈ marks a conversion by molar mass, not a printed value.

Experiments:
Type in all cases: functional
[1] = test system: Mycobacterium tuberculosis; assay: Antimycobacterial activity against Mycobacterium tuberculosis H37Rv ATCC 27294 assessed as inhibition of bacterial growth measured after 7 days by resazurin microtitre assay; settings: H37Rv ATCC 27294, 168 h, time 7 day
[2] = test system: Escherichia coli; assay: Antibacterial activity against Escherichia coli ATCC 25922 assessed as reduction in bacterial growth incubated for 16 to 18 hrs by microtiter plate assay; settings: time 16-18 hrs
[3] = test system: Staphylococcus aureus; assay: Antibacterial activity against Staphylococcus aureus ATCC 29213 assessed as reduction in bacterial growth incubated for 16 to 18 hrs by microtiter plate assay; settings: time 16-18 hrs
[4] = test system: Klebsiella pneumoniae; assay: Antibacterial activity against Klebsiella pneumoniae BAA 1705 assessed as reduction in bacterial growth incubated for 16 to 18 hrs by microtiter plate assay; settings: time 16-18 hrs
[5] = test system: Acinetobacter baumannii; assay: Antibacterial activity against Acinetobacter baumannii BAA 1605 assessed as reduction in bacterial growth incubated for 16 to 18 hrs by microtiter plate assay; settings: time 16-18 hrs
[6] = test system: Pseudomonas aeruginosa; assay: Antibacterial activity against Pseudomonas aeruginosa ATCC 27853 assessed as reduction in bacterial growth incubated for 16 to 18 hrs by microtiter plate assay; settings: time 16-18 hrs
[7] = test system: Mycobacteroides abscessus; assay: Antimycobacterial activity against Mycobacterium abscessus ATCC 19977 assessed as inhibition of bacterial growth after 48 hrs by resazurin microtitre assay
[8] = test system: Mycolicibacterium fortuitum; assay: Antimycobacterial activity against Mycobacterium fortuitum ATCC 6841 assessed as inhibition of bacterial growth after 48 hrs by resazurin microtitre assay
[9] = test system: Mycobacteroides chelonae; assay: Antimycobacterial activity against Mycobacterium chelonae ATCC 6841 assessed as inhibition of bacterial growth after 48 hrs by resazurin microtitre assay

| Compound | MIC [1] [µg/mL] | MIC [2] [µg/mL] | MIC [3] [µg/mL] | MIC [4] [µg/mL] | MIC [5] [µg/mL] | MIC [6] [µg/mL] | MIC [7] [µg/mL] | MIC [8] [µg/mL] | MIC [9] [µg/mL] |
| --- | --- | --- | --- | --- | --- | --- | --- | --- | --- |
| O=C(O)c1ccc(/C=C/C(=O)c2ccc(Nc3nc4ccccc4o3)cc2)cc1 | > 64 | > 64 | > 64 | > 64 | > 64 | > 64 | > 64 | > 64 | > 64 |
| CC(=O)N1N=C(c2ccccc2)CC1c1cc(Cl)c2oc(S)nc2c1 (centres undefined) | 1.25 (≈ 3.36 µM) |  |  |  |  |  |  |  |  |
| COc1cc(/C=C/C(=O)c2ccc(Nc3nc4cc(C)ccc4o3)cc2)cc(OC)c1OC | 16 (≈ 36 µM) | > 64 | > 64 | > 64 | > 64 | > 64 | > 64 | > 64 | > 64 |
| COc1cc(C2CC(c3ccccc3)=NN2C(C)=O)cc2nc(N)oc12 (centres undefined) | 0.625 (≈ 1.78 µM) |  |  |  |  |  |  |  |  |
| O=C(/C=C/c1ccccn1)c1ccc(Nc2nc3ccccc3o2)cc1 | 4 (≈ 11.7 µM) | > 64 | > 64 | > 64 | > 64 | > 64 | > 64 | > 64 | > 64 |
| NNC(=O)c1ccncc1 [ISONIAZID] | 0.03 (≈ 0.219 µM) |  |  |  |  |  |  |  |  |
| CC[C@@H](CO)NCCN[C@@H](CC)CO [ETHAMBUTOL] | 2 (≈ 9.79 µM) |  |  |  |  |  |  |  |  |
| O=C(/C=C/c1cccc([N+](=O)[O-])c1)c1ccc(Nc2nc3ccccc3o2)cc1 | > 64 | > 64 | > 64 | > 64 | > 64 | > 64 | > 64 | > 64 | > 64 |
| Cc1ccc(/C=C/C(=O)c2ccc(Nc3nc4ccccc4o3)cc2)cc1 | > 64 | > 64 | > 64 | > 64 | > 64 | > 64 | > 64 | > 64 | > 64 |
| O=C(/C=C/c1cccc(Cl)c1)c1ccc(Nc2nc3ccccc3o2)cc1 | > 64 | > 64 | > 64 | > 64 | > 64 | > 64 | > 64 | > 64 | > 64 |
| COc1ccc(C(=O)/C=C/c2cc(OC)c(OC)c(OC)c2)cc1Nc1nc2ccccc2o1 | 64 (≈ 139 µM) | > 64 | > 64 | > 64 | > 64 | > 64 | > 64 | > 64 | > 64 |
| COc1ccc(/C=C/C(=O)c2ccc(Nc3nc4ccccc4o3)cc2)cc1OC | 32 (≈ 79.9 µM) | > 64 | > 64 | > 64 | > 64 | > 64 | > 64 | > 64 | > 64 |
| O=C(/C=C/c1ccncc1)c1ccc(Nc2nc3ccccc3o2)cc1 | 16 (≈ 46.9 µM) | > 64 | > 64 | > 64 | > 64 | > 64 | > 64 | > 64 | > 64 |
| COc1cc(/C=C/C(=O)c2cccc(Nc3nc4ccccc4o3)c2)cc(OC)c1OC | 8 (≈ 18.6 µM) | > 64 | > 64 | > 64 | > 64 | > 64 | > 64 | > 64 | > 64 |
